The term IC50 denotes the concentration that gives 50% inhibition. What is called Ki is the dissociation constant of the complex between target and ligand, obtained from inhibition or displacement. The GI50 is the concentration giving 50% growth inhibition.

The structures appear in SMILES notation. Calls of active or inactive are those of the source. No cut-off for these calls is given here. A value given as a limit tells only on which side of the number the result lay.

Experimental findings from ChEMBL document CHEMBL3864191 (ACS Med Chem Lett, 2016) are described below.

A short description of series [1]: cells. To be noted: Homo sapiens, HCT-116, 72 h.
Description: Cytotoxicity against human HCT116 cells assessed as reduction in cell viability after 72 hrs by MTT assay
Series [2] is described as follows: cells. The conditions noted are these: Homo sapiens, MCF7, 72 h.
Description: Cytotoxicity against human MCF7 cells assessed as reduction in cell viability after 72 hrs by MTT assay
Series [3] can be described thus: Cytotoxicity against human DU145 cells assessed as reduction in cell viability after 72 hrs by MTT assay. The conditions noted are these: Homo sapiens, DU-145, 72 h. The class given is functional, cell-based, DU-145. For orientation: Tetrazolium assays rely on reduction of a dye to a coloured formazan, in cell work by metabolically active cells.
Another series deals with NCI60. Description: Cytotoxicity against human NCI60 cells assessed as cell growth inhibition up to 10 uM after 48 hrs by SRB assay. Type of series: functional, cell-based. (The SRB assay estimates cell density from bound dye.)
Series [4] is described as follows: Cytotoxicity against HEK293T cells assessed as reduction in cell viability at 0.33 to 100 uM after 72 hrs by MTT assay. The class given is toxicity, cell-based. The conditions noted are these: human, hek-293t.
In series [5] the target is Induced myeloid leukemia cell differentiation protein Mcl-1 (Homo sapiens, UniProt Q07820). The experiment in a line: Inhibition of FAM-Bid binding to human MCL1 expressed in Escherichia coli BL21 after 30 mins by fluorescence polarization assay. (In fluorescence polarisation assays a small probe gives low polarisation when free and higher when bound to something large.)

A short description of series [6]: Cytotoxicity against mouse CT26 cells assessed as reduction in cell viability after 72 hrs by MTT assay. Type of series: functional, cell-based. To be noted: Mus musculus, CT26, 72 h.
In series [7] the target is Apoptosis regulator Bcl-2 (Homo sapiens, UniProt P10415). The experiment in a line: Inhibition of FAM-Bid binding to human BCL2 expressed in Escherichia coli BL21 after 30 mins by fluorescence polarization assay.
Series [8] is described as follows: Cytotoxicity against African green monkey Vero cells assessed as reduction in cell viability at 0.33 to 100 uM after 72 hrs by MTT assay. To be noted: chlorocebus sabaeus. The class given is toxicity, cell-based.
Series [9] can be described thus: Cytotoxicity against human melanoma cells assessed as cell growth inhibition after 48 hrs by SRB assay. Type of series: functional.
Series [10] is described as follows: Cytotoxicity against human prostate cancer cells assessed as cell growth inhibition after 48 hrs by SRB assay. The class given is functional. The conditions noted are these: Cancer cell lines.
Series [11] can be described thus: Cytotoxicity against human leukemia cells assessed as cell growth inhibition after 48 hrs by SRB assay. Type of series: functional.
Series [12] can be described thus: Cytotoxicity against human CNS cancer cells assessed as cell growth inhibition after 48 hrs by SRB assay. To be noted: Cancer cell lines. Type of series: functional.
Series [13] is described as follows: Cytotoxicity against human colon cancer cells assessed as cell growth inhibition after 48 hrs by SRB assay. Type of series: functional. The conditions noted are these: Cancer cell lines.
Series [14] is described as follows: Cytotoxicity against human renal cancer cells assessed as cell growth inhibition after 48 hrs by SRB assay. The class given is functional. The conditions noted are these: Cancer cell lines.
Series [15] is described as follows: Cytotoxicity against human ovarian cancer cells assessed as cell growth inhibition after 48 hrs by SRB assay. To be noted: Cancer cell lines. Type of series: functional.
Series [16] can be described thus: Cytotoxicity against human non-small cell lung cancer cells assessed as cell growth inhibition after 48 hrs by SRB assay. Type of series: functional. To be noted: Cancer cell lines.
A short description of series [17]: Cytotoxicity against human breast cancer cells assessed as cell growth inhibition after 48 hrs by SRB assay. Type of series: functional. The conditions noted are these: Cancer cell lines.

Sequence of Induced myeloid leukemia cell differentiation protein Mcl-1 (Q07820 whole entry): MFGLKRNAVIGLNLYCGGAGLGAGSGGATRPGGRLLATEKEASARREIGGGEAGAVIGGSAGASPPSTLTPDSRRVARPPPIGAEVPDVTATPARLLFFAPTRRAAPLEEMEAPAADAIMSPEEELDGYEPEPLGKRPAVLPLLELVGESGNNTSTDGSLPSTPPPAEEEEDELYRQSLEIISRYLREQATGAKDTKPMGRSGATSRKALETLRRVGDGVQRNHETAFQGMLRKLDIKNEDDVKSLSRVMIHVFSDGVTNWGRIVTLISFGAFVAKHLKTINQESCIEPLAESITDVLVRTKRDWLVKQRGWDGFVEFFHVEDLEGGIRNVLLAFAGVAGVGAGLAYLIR
Sequence of Apoptosis regulator Bcl-2 (P10415 whole entry): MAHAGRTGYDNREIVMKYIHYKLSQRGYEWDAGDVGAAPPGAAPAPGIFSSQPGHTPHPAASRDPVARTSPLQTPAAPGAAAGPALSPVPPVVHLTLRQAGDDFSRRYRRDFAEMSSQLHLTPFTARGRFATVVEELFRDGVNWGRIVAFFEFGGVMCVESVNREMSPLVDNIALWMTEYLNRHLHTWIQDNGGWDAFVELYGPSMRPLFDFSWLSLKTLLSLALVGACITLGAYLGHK

Take `Cc1cc2c(c(O)c1-c1c(C)cc3c(c1O)/C(=C/NCC(=O)O)C(=O)C(O)=C3C(C)C)/C(=C/NCC(=O)O)C(=O)C(O)=C2C(C)C`: the half-inhibitory concentration (IC50) came to 26800 nM in the series “cells [1]”; 14400 nM in the series “cells [2]”; 34800 nM in [3]; 521 nM in [5]; 48900 nM in [6]; 573 nM in [7]. Also, the “growth inhibition (GI)” value with NCI60 is “Active”. For the same compound, the Activity entry in series [4] and in series [8] was “Non-Toxic” each time. Also, the inhibition constant (Ki) was determined as 121 nM in series [5] and 224 nM in series [7].
`COC(=O)CN/C=C1\C(=O)C(O)=C(C(C)C)c2cc(C)c(-c3c(C)cc4c(c3O)/C(=C/NCC(=O)OC)C(=O)C(O)=C4C(C)C)c(O)c21`: the GI50 came out at 2840 nM in series [9]; 1920 nM in series [10]; 1880 nM in series [11]; 1630 nM in [12]; 1630 nM in series [13]; 2190 nM in [14]. For the same compound, the 50% growth inhibitory concentration (GI50) in series [15] came to 1740 nM; in [16], 1650 nM; in [17] it was 2440 nM. For the same compound, the “growth inhibition (GI)” value with NCI60 is “Active”. In addition, the Activity result in [4] and in series [8] was “Non-Toxic” each time. Also, the half-maximal inhibitory concentration (IC50) is 1430 nM in series [5] and 103 nM in [7]. The results for the Ki in series [5] and in series [7] were 276 nM and 5 nM, respectively.
For `COC(=O)CCCCCN/C=C1\C(=O)C(O)=C(C(C)C)c2cc(C)c(-c3c(C)cc4c(c3O)/C(=C/NCCCCCC(=O)OC)C(=O)C(O)=C4C(C)C)c(O)c21`, the half-maximal inhibitory concentration (IC50) stood at 640 nM in the series “cells [1]”; 11500 nM in “cells [2]”; 8560 nM in [3]; 1020 nM in series [5]; 13800 nM in series [6]; 840 nM in [7]. The concentration for 50% growth inhibition (GI50) in series [9] is 2350 nM; in series [10], 1410 nM; in [11] it was 1030 nM; in series [12], 1460 nM; in series [13], 1440 nM; in series [14], 2080 nM. Besides, the 50% growth inhibitory concentration (GI50) stood at 2650 nM in series [15], 1510 nM in series [16] and 1720 nM in series [17]. Also, the “growth inhibition (GI)” value with NCI60 is “Active”. Further, the Activity result in series [4] and in [8] was “Non-Toxic” throughout. The inhibition constant Ki in series [5] came to 195 nM; in [7], 348 nM.
On to `Cc1cc2c(c(O)c1-c1c(C)cc3c(c1O)/C(=C/NC1CCCCC1)C(=O)C(O)=C3C(C)C)/C(=C/NC1CCCCC1)C(=O)C(O)=C2C(C)C`, for which the IC50 is 80300 nM in “cells [1]”, > 100000 nM in the series “cells [2]”, 20600 nM in [3] and 25200 nM in [6]. Moreover, in the series with NCI60, the “growth inhibition (GI)” value was “Active”.
Regarding `Cc1cc2c(c(O)c1-c1c(C)cc3c(c1O)/C(=C/Nc1ccc(C(C)(C)C)cc1)C(=O)C(O)=C3C(C)C)/C(=C/Nc1ccc(C(C)(C)C)cc1)C(=O)C(O)=C2C(C)C`, the half-inhibitory concentration (IC50) in the series “cells [1]” is > 100000 nM; in “cells [2]” it was > 100000 nM; in series [3] it was > 100000 nM; in series [6], 12800 nM. In addition, the “growth inhibition (GI)” value with NCI60 is “Active”.
In the case of `Cc1cc2c(c(O)c1-c1c(C)cc3c(c1O)/C(=C/NCc1ccccc1)C(=O)C(O)=C3C(C)C)/C(=C/NCc1ccccc1)C(=O)C(O)=C2C(C)C`, the IC50 in “cells [1]” was 83100 nM; in the series “cells [2]”, > 100000 nM; in series [3], 21900 nM; in series [6], > 100000 nM. For the same compound, the “growth inhibition (GI)” value in the series with NCI60 is “Active”.
Regarding `COC(=O)CCCCCCN/C=C1\C(=O)C(O)=C(C(C)C)c2cc(C)c(-c3c(C)cc4c(c3O)/C(=C/NCCCCCCC(=O)OC)C(=O)C(O)=C4C(C)C)c(O)c21`, the IC50 in “cells [1]” stood at 13100 nM; in the series “cells [2]”, 8950 nM; in series [3], 11400 nM; in series [6], 5590 nM. In the series on NCI60, the “growth inhibition (GI)” value was “Active”. In addition, the Activity entry in [4] and in series [8] was “Non-Toxic” each time.
